Calls of active or inactive are those of the source.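 The calls were made as follows: active = compounds lowering cell viability signal with fitted half-maximal concentration at most ten times their highest tested concentration; inconclusive = flat fit with 30 to 70% signal loss, or poor fit; inactive = the rest.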

This test deals with HEK293T viability, CellTiter-Glo ATP luminescence, 48 h. Description: cytotoxicity in HEK293T cells – cell-based, CellTiter-Glo luminescence, cherry-picks, cytotoxicity control for LMP1 NF-kB inhibitor project, dose response (AID 504861). For orientation: Cellular ATP, detected with luciferase, serves as a proxy for viable cell number.
Turning to `CCc1cc2c(N3CCN(c4ccccc4)CC3)ncnc2s1`, the AC50 (as a rule, the concentration giving half of the maximal activity seen) is 26.4 µM.

Take `O=C(N/N=C/c1cc2c3c(c1O)CCCN3CCC2)c1ccccc1O`: the AC50 was 4.17 µM. On to `C(=N\Nc1nc2ccccc2[nH]1)/c1cccc2cccnc12`, for which the AC50 is 3.24 µM. For the molecule `Oc1ccc2ccccc2c1/C=N/Nc1nnc(-c2ncc[nH]2)c2ccccc12`, the AC50 is 2.32 µM. Consider `Cc1ccsc1/C=C/c1ccc2ccccc2n1`, for which the AC50 is 25.6 µM. For the molecule `O=C(CF)N(O)c1ccc(C=Cc2ccccc2)cc1`, the AC50 is > 26 µM (inactive). Consider `COc1ccc(-c2ccc(NC(=O)c3ccco3)cc2)nn1`, for which the AC50 is 7.75 µM. Regarding `S=C(NCCCN1CCOCC1)N1CCN(c2nc(-c3ccc(Cl)cc3)cs2)CC1`, the AC50 was > 26 µM (inactive).

On to `COc1cccc(/C=N/Nc2nc3ccccc3[nH]2)c1O`, for which the AC50 is 5.26 µM. Consider `CC(=NNc1nc2ccccc2s1)c1ncccn1`, for which the AC50 was 13.8 µM. As for `C#CCn1c(S(=O)(=O)Cc2ccc(F)cc2)nc(-c2ccccc2)c1-c1ccccc1`, the figure is > 26 µM (inactive); as for `COc1ccc(C(NC(C)=O)c2cc(Cl)c3cccnc3c2O)cc1` (stereo not given), 4.88 µM; as for `CCc1ccc(Nc2n[n+](-c3ccccc3)c(-c3c(Cl)cccc3Cl)s2)cc1`, 11.2 µM.

For `O=C(Nc1nc2ccc(F)cc2s1)C1=COCCO1`, the AC50 is 18.7 µM.

In the case of `Cc1ccc2[nH]c3c(N4CCN(Cc5ccccc5)CC4)ncnc3c2c1`, the AC50 was 12.2 µM. With `O=C(/C=C/c1ccco1)Oc1cc(Br)cc(/C=N/NC(=O)c2ccccc2O)c1`, the half-maximal activity concentration (AC50) was 3.47 µM. To `O=C(Nc1nnc(SCc2ccc(F)cc2)s1)c1ccccn1` belongs 25.9 µM.

Turning to `C#CCN(C[C@@H]1[C@@H](OC(=O)NCC2CCCCC2)[C@@H](OC(=O)NCC2CCCCC2)Cn2c(=O)ccc(=O)n21)S(=O)(=O)c1ccc(C)cc1`, the AC50 is 4.63 µM. Turning to `CC(C)OC(=O)c1ccc(NCc2cc(O)ccc2O)cc1Cl`, the AC50 was 6.74 µM.

On to `CCOC(=O)c1c(C)[nH]c(C(=O)N/N=C\c2ccccc2O)c1C`, for which the AC50 is 4.09 µM. With `C=C1C(=O)C2=CC1CCC(=O)C1(C)CCC(OC(C)=O)C(C)(C)C1CC2O` (stereo not given), the AC50 was 11.3 µM.

`CN(Cc1cnc2nc(N)nc(N)c2n1)c1ccc(C(=O)N[C@@H](CCC(=O)O)C(=O)O)cc1`: the concentration at half-maximal activity (AC50) was 0.016 µM. On to `CC(=NNC(=S)Nc1ccccc1)c1ccccn1`, for which the AC50 is 1.56 µM.

Regarding `CC(=NNC(=S)N1CCN(c2ccccn2)CC1)c1nccs1`, the AC50 was 3.52 µM. As for `O=C1C(=C(c2ccccc2)N2CCOCC2)Cc2ccccc21`, the concentration at half-maximal activity (AC50) is 1.38 µM. Take `O=C(c1ccccc1)C(CCC(CN1CCOCC1)C(=O)c1ccccc1)CN1CCOCC1` (stereo not given): the AC50 is 2.57 µM. To `CCCCC(=O)NC(c1ccc(OC)cc1)c1ccc2cccnc2c1O` (stereo not given) belongs 16.2 µM. To `CC(=O)NC(c1cccc([N+](=O)[O-])c1)c1ccc2cccnc2c1O` (stereo not given) belongs 3.66 µM; to `CC(=O)NC(c1cccs1)c1cc(F)c2cccnc2c1O` (stereo not given), 4.67 µM; to `COc1ccc2c(c1)/C(=C/c1cnc[nH]1)C(=O)N2`, 23.1 µM. For the molecule `CCN(CC)C(=O)c1ccc(NC(=O)Nc2ccccc2F)cc1`, the AC50 was 2.41 µM.

As for `Cc1csc(SCC(=O)c2cc(C)n(Cc3cccs3)c2C)n1`, the AC50 was > 26 µM (inactive). Consider `COc1ccc(-c2nc(-c3cccs3)no2)cc1`, for which the AC50 is > 26 µM (inactive). On to `COc1ccc(C=C2CS(=O)(=O)CC(=Cc3ccc(OC)cc3)C2=O)cc1`, for which the AC50 was 11.8 µM.

For `CCC(=O)NC(c1ccc(Cl)cc1Cl)c1ccc2cccnc2c1O` (stereo not given), the AC50 is 8.21 µM.

For `C#CCN(C[C@@H]1[C@@H](OC(=O)NCCCCCC)[C@@H](OC(=O)NCCCCCC)Cn2c(=O)ccc(=O)n21)S(=O)(=O)c1ccc(C)cc1`, the AC50 is 4.1 µM.

As for `O=C(CCc1ccccc1)NC(c1cccs1)c1cc(Cl)c2cccnc2c1O` (stereo not given), the AC50 was 9.28 µM. Take `COc1ccccc1N(C(C)=O)C1=C(Cl)C(=O)c2ccccc2C1=O`: the AC50 was 11.7 µM. Regarding `COc1cccc(/C=N/Nc2ncccc2[N+](=O)[O-])c1OC`, the AC50 is 18.8 µM. As for `O=C(O)c1cc(/C=C/c2ccc(N3CCOCC3)cc2)nc2ccccc12`, the AC50 was > 26 µM (inactive).
